Patent EP4725957A1, “GROUP OF CYCLIC ALKALINE LIPOPEPTIDE COMPOUNDS, AND PREPARATION METHOD THEREFOR AND USE THEREOF” (Institute of Medicinal Biotechnology, Chinese Academy of …, priority 2023, dated 2024)
≈ marks a conversion by molar mass, not a printed value. Read-outs that look alike come from different tables or passages of the source. Bridge positions count the residues as written; N and C are the ends. Square brackets hold non-standard residues; d marks the D form. Peptide text beside a SMILES is read from it. * marks the point of attachment. dOrn = NCCC[C@@H](N)C(=O)O; Nonanoyl = CCCCCCCCC(=O)*; Heptanoyl = CCCCCCC(=O)*; Octanoyl = CCCCCCCC(=O)*; dDap = NC[C@@H](N)C(=O)O; Dab = NCC[C@H](N)C(=O)O; Dap = NC[C@H](N)C(=O)O

Experiments:
Assay type in all cases: cell-based
[1] = test system: Klebsiella pneumoniae ATCC BAA-1705 (KPC)
Method: (§1) The minimal inhibitory concentration (MIC) was determined by the broth microdilution method according to the recommended procedures of the Clinical and Laboratory Standards Institute (CLSI).
(§2) An appropriate amount of the cyclic lipopeptide compounds prepared in Examples 1-120 and the reference standards were weighed and dissolved in sterile pure water. An appropriate volume of the mother solution was subjected to ten-fold dilution with sterile Mueller-Hinton (MH) broth to a concentration of 0.256 mg/mL. Half of the drug solution was aliquoted into 96-well reagent reservoirs, while the other half was subjected to two-fold serial dilution with sterile MH broth before being transferred into deep-well reagent reservoirs. The above steps were repeated, so that the drug concentrations in the reagent reservoirs were adjusted to 128, 64, 32, 16, 8, 4, 2, 1, 0.5, 0.25, 0.125 and 0.06 mg/L in sequence, and all solutions were prepared and used immediately. Several colonies were picked from agar plates cultured for 18-24 h and directly suspended in sterile normal saline, and the concentration of the bacterial suspension was adjusted to 0.5 McFarland units. The calibrated bacterial suspension was diluted with MH broth to a concentration of (4-8) × 10^5 colony-forming units per milliliter (CFU/mL) and prepared and used immediately. A volume of 100 µL of the aforementioned compounds of the present disclosure (e.g., the compounds prepared in the examples) and reference solutions at different concentrations was separately pipetted into wells 1 to 12 of sterile 96-well polystyrene plates, and an additional 100 µL of the aforementioned inoculum was added to each well. The final concentrations of the samples in the wells were adjusted to 64, 32, 16, 8, 4, 2, 1, 0.5, 0.25, 0.125, 0.06 and 0.03 mg/L, respectively, and the final concentration of the inoculum in each well was (2-4) × 10^5 CFU/mL. Additional growth control wells were set up, each containing 100 µL of the inoculum and 100 µL of sterile MH broth. The test substances and inocula in all wells were mixed thoroughly and then sealed. The inoculated 96-well plates were incubated in an incubator at 35-37°C for 16-20 h.
(§3) The strains used for the antibacterial activity assay were obtained from the American Type Culture Collection (ATCC) and clinical isolates.
(§4) The strains employed for the antibacterial activity assay included Escherichia coli ATCC BAA-2523, ATCC BAA-2340 (KPC), Klebsiella pneumoniae KPN+19-15, ATCC BAA-1705 (KPC), Pseudomonas aeruginosa PAE19-3, ATCC 27853, Acinetobacter baumannii ABA19-1, and NCTC 13304 (OXA-27).

[2] = test system: Escherichia coli ATCC BAA-2340 (KPC)
Method: as §1, §2, §3, §4

[3] = test system: Klebsiella pneumoniae KPN+19-15
Method: as §1, §2, §3, §4

[4] = test system: Acinetobacter baumannii NCTC 13304 (OXA-27)
Method: as §1, §2, §3, §4

[5] = test system: Acinetobacter baumannii ABA19-1
Method: as §1, §2, §3, §4

[6] = test system: Pseudomonas aeruginosa ATCC 27853
Method: as §1, §2, §3, §4

[7] = test system: Pseudomonas aeruginosa PAE19-3
Method: as §1, §2, §3, §4

[8] = test system: Escherichia coli ATCC BAA-2523
Method: as §1, §2, §3, §4

[9] = Nephrotoxicity assay: in vitro cytotoxicity of HK-2 cells by CCK-8 assay; details: human, HK-2 cells (human renal), 72 h incubation with drug-containing medium
Method: In vitro cytotoxicity detection of HK-2 cells was performed by the CCK-8 assay.
The culture medium for human renal HK-2 cells was a complete RPMI-1640 medium (Invitrogen) supplemented with 10% fetal bovine serum (FBS, Gibco). The cryopreservation solution was composed of 90% FBS and 10% dimethyl sulfoxide (DMSO), and the cells were preserved long-term in liquid nitrogen. Cells were cultured in a sterile incubator with a humidified atmosphere containing 5% CO2 at 37°C. When the cell density reached 70%-80%, cell digestion and subculture were conducted. The cyclic lipopeptide compounds prepared in Examples 1-120 were weighed and dissolved in sterile water to prepare a mother solution with a concentration of 1 mg/mL. Drug-containing culture media were then formulated, with the final concentrations set as 500, 250, 200, 100, 50, 25, and 12.5 µg/mL, respectively. Cells were adjusted to a density of 5 × 10^4 cells/mL and seeded into 96-well plates, with 100 µL of cell suspension added to each well. After stable incubation for 24 h, the original medium was replaced with the prepared drug-containing medium, and the plates were incubated in the incubator for an additional 72 h. The medium was gently aspirated, and 100 µL of blank medium containing 10% CCK-8 was added to each well. After incubation in the incubator for 3 h, the optical density (OD) values at 450 nm were measured using a BIOTEK microplate reader. The experiment was repeated three times. For each replicate, polymyxin B was set as the positive drug, and a drug-free blank group was established as the control. The cell viability (%) was calculated by the formula: Cell viability (%) = [(OD of drug-treated group - OD of zero-setting) / (OD of drug-free group - OD of zero-setting)] × 100%. The half-maximal inhibitory concentration (IC50) values were calculated through logarithmic regression analysis.
The cells used for the nephrotoxicity assay were obtained from the ATCC ( American Type Culture Collection). The Cell Counting Kit-8 (CCK-8) used in the assay was supplied by Beyotime Biotechnology Co., Ltd.

Compound	MIC ([1]; ATCC BAA-1705) [µg/mL]	MIC ([2]; ATCC BAA-2340) [µg/mL]	MIC ([3]; KPN+19-15) [µg/mL]	MIC ([4]; NCTC 13304) [µg/mL]	MIC ([5]; ABA19-1) [µg/mL]	MIC ([6]; ATCC 27853) [µg/mL]	MIC ([7]; PAE19-3) [µg/mL]	MIC ([8]; ATCC BAA-2523) [µg/mL]	IC50 at 72 h [9] [µg/mL]	MIC ([1]; Klebsiella pneumoniae ATCC BAA-1705 (KPC)) [µg/mL]	MIC ([2]; Escherichia coli ATCC BAA-2340 (KPC)) [µg/mL]	MIC ([3]; Klebsiella pneumoniae KPN 19-15) [µg/mL]	MIC ([4]; Acinetobacter baumannii NCTC 13304 (OXA-27)) [µg/mL]	MIC ([5]; Acinetobacter baumannii ABA19-1) [µg/mL]	MIC ([6]; Pseudomonas aeruginosa ATCC27853) [µg/mL]	MIC ([7]; Pseudomonas aeruginosa PAE19-3) [µg/mL]	MIC ([8]; Escherichia coli ATCC BAA-2523) [µg/mL]
CCCCCCC(=O)N[C@@H](CCN)C(=O)N[C@H](C(=O)N[C@H](CO)C(=O)N[C@H]1CCNC(=O)[C@H]([C@@H](C)O)NC(=O)[C@H](CCN)NC(=O)[C@H](CN)NC(=O)[C@H]([C@@H](C)O)NC(=O)[C@@H](Cc2ccccc2)NC(=O)[C@H](CCN)NC1=O)[C@@H](C)O [Compound 74, Heptanoyl-Dab-Thr-D-Ser-ring(4-10)[Dab-Dab-D-Phe-Thr-Dap-Dab-Thr]] (Heptanoyl-[Dab]T[dS][Dab][Dab][dF]T[Dap][Dab]T; lactam 4-C)	0.25 (≈ 0.22 µM)	0.06 (≈ 0.0528 µM)	0.5 (≈ 0.44 µM)	0.03 (≈ 0.0264 µM)	0.06 (≈ 0.0528 µM)	>64	64 (≈ 56.3 µM)	0.06 (≈ 0.0528 µM)	> 500	–	–	–	–	–	–	–	–
CCCCCCCCC(=O)N[C@@H](CCN)C(=O)N[C@H](C(=O)N[C@H](CCCN)C(=O)N[C@H]1CCNC(=O)[C@H]([C@@H](C)O)NC(=O)[C@H](CCN)NC(=O)[C@H](CCN)NC(=O)[C@H](CC(C)C)NC(=O)[C@@H](Cc2ccccc2)NC(=O)[C@H](CCN)NC1=O)[C@@H](C)O [Compound 45, Nonanoyl-Dab-Thr-D-Orn-ring(4-10)[Dab-Dab-D-Phe-Leu-Dab-Dab-Thr]] (Nonanoyl-[Dab]T[dOrn][Dab][Dab][dF]L[Dab][Dab]T; lactam 4-C)	0.06 (≈ 0.0493 µM)	0.06 (≈ 0.0493 µM)	0.125 (≈ 0.103 µM)	0.06 (≈ 0.0493 µM)	0.125 (≈ 0.103 µM)	0.5 (≈ 0.411 µM)	2 (≈ 1.64 µM)	0.06 (≈ 0.0493 µM)	139 ± 6.7 (≈ 114 µM)	–	–	–	–	–	–	–	–
CCCCCCCC(=O)N[C@@H](CCN)C(=O)N[C@H](C(=O)N[C@H](CN)C(=O)N[C@H]1CCNC(=O)[C@H]([C@@H](C)O)NC(=O)[C@H](CCN)NC(=O)[C@H](CCN)NC(=O)[C@H](CC(C)C)NC(=O)[C@@H](Cc2ccccc2)NC(=O)[C@H](CCN)NC1=O)[C@@H](C)O [Compound 33, Octanoyl-Dab-Thr-D-Dap-ring(4-10)[Dab-Dab-D-Phe-Leu-Dab-Dab-Thr]] (Octanoyl-[Dab]T[dDap][Dab][Dab][dF]L[Dab][Dab]T; lactam 4-C)	–	–	–	–	–	–	–	–	339 ± 9.1 (≈ 289 µM)	0.03 (≈ 0.0255 µM)	0.03 (≈ 0.0255 µM)	0.03 (≈ 0.0255 µM)	0.03 (≈ 0.0255 µM)	0.03 (≈ 0.0255 µM)	0.03 (≈ 0.0255 µM)	0.25 (≈ 0.213 µM)	0.03 (≈ 0.0255 µM)
